The assay relates to HepG-2 (Hepatocellular carcinoma). The assay can be described thus: SRB (sulforhodamine-B-stain) anticancer assay, HepG-2. In kind it is cell-based. Conditions: Homo sapiens, HepG2, HepG-2 cells, 48 hours at 37° C., absorbance 564 nm. On the procedure:
Investigation for the bio-reactivity of PtL, as an antitumor candidate, was achieved versus well documented human cancer cell lines, as three cancers entitled HepG2, MCF-7, and HCT-116, using the simplest tool SRB (sulforhodamine-B-stain). In particular, the most popular anticancer referenced drug (vinblastine) was used in the anticancer assay (the inhibited action of the cancer cells) to compare its bio-reactivity versus that one of PtL. The antitumor reactivity of PtL was evaluated by IC50 concentrations (half effected concentration in μM) for inhibiting the growth of the tumor and normal cell lines of human in which IC50 concentrations were obtained from Eq. 1, below.
With HepG-2 (Hepatocellular carcinoma), HCT-116 (colon carcinoma), and MCF7 (breast adenocarcinoma), as human cancer cell lines, the antitumor potential of PtL was studied against their growth by applying a spectrometric tool. Using SRB (sulforhodamine-B-stain) was essential in the spectrometric studies at a specific wavelength (564 nm, the optimized absorption wavelength). Recording the corresponded absorbance (A) at 564 nm was accomplished using a UV/Vis. spectrophotometer, UV-1800 mode Shimadzu with a mono-cell holder. […]

Consider `CC[C@]1(O)C[C@@H]2CN(CCc3c([nH]c4ccccc34)[C@@](C(=O)OC)(c3cc4c(cc3OC)N(C)[C@H]3[C@@](O)(C(=O)OC)[C@H](OC(C)=O)[C@]5(CC)C=CCN6CC[C@]43[C@@H]65)C2)C1` [Vinblastine, vinblastine], for which the IC50 – broadly, the concentration that gives 50% inhibition – was 7.5 ± 0.1 µM.

The record behind these values is patent US12054451B1, “Water soluble platinum (II) amino acid schiff base as an antitumor drug” (KING FAISAL UNIVERSITY, priority 2024, dated 2024).
